According to patent US20260159474A1, “Aminoindane Compounds and Compositions and Methods of Their Therapeutic Use” (Solvonis Therapeutics Ireland Holdings Limited, priority 2021, published 2026):
Where two headings read alike, the source gives them in different places.

Experiments:
hSERT = biological target: T1, hSERT (Homo sapiens, UniProt P31645); experiment: SERT uptake SPA in hSERT-CHO cells; format: cell-based; details: for SERT/DAT Uptake Ratio: calculated as 1/SERT IC50:1/DAT IC50
T1 construct: expressed in transfected cells; host or cells: CHO (hSERT-CHO)
T1 sequence (P31645 whole entry): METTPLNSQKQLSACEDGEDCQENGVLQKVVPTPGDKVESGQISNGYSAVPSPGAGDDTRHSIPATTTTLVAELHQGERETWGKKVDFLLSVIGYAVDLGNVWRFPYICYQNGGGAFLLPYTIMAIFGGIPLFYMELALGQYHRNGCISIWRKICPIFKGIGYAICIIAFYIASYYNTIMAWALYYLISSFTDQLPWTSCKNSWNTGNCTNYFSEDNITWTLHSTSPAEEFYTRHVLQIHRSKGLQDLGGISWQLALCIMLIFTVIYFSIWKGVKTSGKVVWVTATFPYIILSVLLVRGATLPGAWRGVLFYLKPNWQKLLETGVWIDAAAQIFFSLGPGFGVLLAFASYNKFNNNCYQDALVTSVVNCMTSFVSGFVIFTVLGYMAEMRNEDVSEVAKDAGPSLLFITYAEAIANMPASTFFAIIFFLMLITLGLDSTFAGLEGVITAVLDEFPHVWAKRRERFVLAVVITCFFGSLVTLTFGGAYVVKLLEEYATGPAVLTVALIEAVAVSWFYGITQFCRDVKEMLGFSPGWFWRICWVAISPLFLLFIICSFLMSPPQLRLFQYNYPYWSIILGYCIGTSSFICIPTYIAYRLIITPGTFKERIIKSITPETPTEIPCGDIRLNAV
Description: Briefly, on experiment days, hDAT-CHO cells were detached using Versene and added at a density of approximately 300,000 cells/mL to the SPA Mixture, which contains the following components in Assay Buffer (20 mM HEPES, 145 mM NaCl, 5 mM KCl, 2 mM CaCl2), 1 mM MgCl2, 5.5 mM glucose, 0.01% Pluronic F127, pH 7.3): 0.75 mg/mL SPA Imaging beads (RPNQ0001, PerkinElmer), 10 μM pargyline and 80 nM of [3H]-dopamine (NET673, PerkinEImer). The SPA Mixture was added 20 μL/well to 384 well plates containing 0.1 μL/well of test compound in neat DMSO (11 points of 1:5 serial dilution, 0.5% DMSO final) or 0.1 μL of DMSO (total uptake) or 0.1 μL of the standard inhibitor indatraline (at 1 μM final concentration, as nonspecific uptake). Plates were sealed with a Top-seal A and read using a Microbeta counter (PerkinElmer) after 45 minutes of incubation at room temperature. […] The SPA Mixture was added 20 μL/well to 384 well plates containing 0.1 μL/well of test compound in neat DMSO (11 points of 1:5 serial dilution, 0.5% DMSO final), 0.1 μL of DMSO (total uptake), or 0.1 μL of the standard inhibitor indatraline (1 μM, nonspecific uptake). Plates were sealed with a Top-seal A and read using a Microbeta counter (PerkinElmer) after 120 minutes of incubation at room temperature.
For both tests, the raw experimental data (cpm) were elaborated for the determination of pIC50/IC50 values as % inhibition of specific uptake. Concentration-response curves of MDMA, MDDMA, citalopram and GBR-12909 were used as internal standards in all experiments, and the signal window was monitored in each plate performing Z′ calculations, as described in Zhang et al., J Biomol Screen.

[1] = Intrinsic clearance in rat liver microsomes; format: in vitro ADME; details: for microsomal CLint at 0.5 μM: pH 7.4, read-out: Cl (μL/min/mg protein) - Rat Microsomes
Description: Methods: The general procedure involved incubating test compounds with liver microsomes and subsequently detecting the compounds to determine intrinsic clearance. Clearance was estimated from the rate of depletion k (min-1), the volume of the incubation V (mL), and the amount of microsomal proteins in the incubation M (mg). Intrinsic clearance is defined by the following equation: Clint=k*V/M.
Values for CLint are expressed as μL/min/mg liver microsomes. Verapamil and dextromethorphan were used as positive controls for CYP3A4 and CYP2D6 isoforms, respectively, to confirm metabolic activity. Stock solutions were prepared in DMSO for therapeutic compounds and positive controls verapamil and dextromethorphan (10 mM for all). Working solutions were prepared by diluting stock in MeOH to reach […]. However, this concentration can be varied, e.g., when the test item is not soluble in the selected solvent.
Prior to experimentation, frozen liver microsomes were thawed in a water bath at 37° C. and kept on ice until use. The microsomes were then diluted with 50 mM potassium phosphate buffer pH 7.4 to a protein concentration of 0.56 mg/mL. To prepare test and control items in final incubation conditions, 5 μL of test compound and positive control working solutions were added to 445 μL of microsomes incubation mixture at 0.56 mg/mL and 50 μL of regenerating system.
As it relates to the automated incubation procedure for microsomes incubation, the following procedure was followed. Briefly, 150 μL of quenching solution (ACN containing an appropriate Internal Standard, i.e. Rolipram and Diclofenac for positive and negative ion mode, respectively) was manually dispensed or dispensed by using the Hamilton system in each well of 96 deep well 1 mL plates. Next, 800-1000 μL-aliquots of NADPH regenerating system were pre-warmed at 37° C. for 5 minutes. 5 μL of 50 µM test items and control were added to 445 μL of the 0.56 mg/mL microsomes solution, and the incubation mixture was pre-warmed in a 96 deep well 2 mL plate (incubation plate) at 37° C. for 5 minutes. The incubation reactions were initiated by adding 50 μL of pre-warmed NADPH regenerating system to the incubation mixtures.
50 μL-aliquots were sampled from incubation mixtures at: 0, 3, 10, 15, 30, and 45 minutes. The samples were centrifuged at 3,000 rpm for 10 minutes and further diluted in order to optimize the analytical condition prior to the LC MS/MS or Rapid Fire-MS/MS analysis. Incubations of test items were run in duplicate (n=2) with a single positive control (n=1). For sample analysis, an LC-MS/MS system was used to monitor the test samples/control to internal standard peak area ratios as representative of the test or control item's concentration. Data from test item incubation was processed to give mean values where applicable. Metabolic stability was calculated from the ratio of peak area of the remaining test or control item with internal standard versus time.
Peak areas for test and control items were integrated using Integrator Software from Agilent or Analyst or MultiQuant Software from AB SciexTM and were exported to XLFit or Morphit (The Edge), which were designed to calculate in vitro metabolic stability parameters. The integrated peak areas of the test and control items at the selected time points were divided by the respective peak areas of the IS, and the percent of parent remaining was calculated by normalizing the peak area ratio of parent to IS at 0 min. Observed rate constant (kobs) for parent degradation was calculated by determining the slope of the line of the graph of the natural log of percentage parent remaining versus time of incubation. This was scaled for the protein in the incubation relative to that in the liver.

[2] = [3H]-serotonin uptake, hSERT-CHO cells, read-out: SERT Uptake SPA (pIC50) (converted)

For COC(=O)c1cc2c(cc1OC)CC(N)C2 (stereo not drawn) [CMP-401], the IC50 (hSERT; [2]) was 3.98 µM, the “SERT/DAT Uptake Ratio” value (hSERT) was 22 and the microsomal CLint at 0.5 μM [1] was 121 µL/min/mg.
For COC(=O)COc1ccc2c(c1)CC(N)C2 (stereo not drawn) [CMP-402], the IC50 (hSERT; [2]) was 63.1 µM, the “SERT/DAT Uptake Ratio” value (hSERT) was 1.4 and the “Cl (μL/min/mg protein) - Rat Microsomes” value [1] was “greatest clearance”. For the same compound, the microsomal CLint at 0.5 μM [1] was 2050 µL/min/mg.
Compound COC(=O)c1ccc2c(c1)CC(N)C2 (stereo not drawn) [CMP-405, 2-aminoindane-5-methylcarboxylate] has an IC50 (hSERT; [2]) of 7.94 µM and a microsomal CLint at 0.5 μM [1] of 143 µL/min/mg.
With CNC(C)Cc1ccc2c(c1)OCO2 (stereo not drawn) [MDMA] the “SERT Uptake SPA (pIC50)” value (hSERT; [3H]-serotonin uptake, hSERT-CHO cells) was 6.0, the “SERT/DAT Uptake Ratio” value (hSERT) was 2.1 and the “Cl (μL/min/mg protein) - Rat Microsomes” value [1] was 395 μL/min/mg protein.
In the case of COc1ccc2c(c1)CC(N)C2 (stereo not drawn) [MEAI, 5-methoxy-2-aminoindane], the IC50 (hSERT) is reported as 3.98 µM, the “SERT/DAT Uptake Ratio” value (hSERT) is reported as 9 and the microsomal CLint at 0.5 μM [1] is reported as 156 µL/min/mg.
With COc1cc2c(cc1C)CC(N)C2 (stereo not drawn) [MMAI, 5-methoxy-6-methyl-2-aminoindane] the IC50 (hSERT) was 1 µM, the “SERT/DAT Uptake Ratio” value (hSERT) was 52 and the microsomal CLint at 0.5 μM [1] was 200 µL/min/mg.
